Results taken from the NIST ThermoML archive (doi:10.1016/j.jct.2017.08.004).

Assay: molar heat capacity at constant pressure
Details: 101.33 kPa, Crystal

OC[C@@H](O)[C@@H](O)CO [meso-1,2,3,4-butanetetrol]
Details	molar heat capacity at constant pressure [J/K/mol]
1 K, relaxation calorimetry	0.00103
1.924 K, relaxation calorimetry	0.005451
2 K, relaxation calorimetry	0.006099
2.124 K, relaxation calorimetry	0.007391
2.347 K, relaxation calorimetry	0.009418
2.604 K, relaxation calorimetry	0.01294
2.892 K, relaxation calorimetry	0.01782
3 K, relaxation calorimetry	0.01982
3.203 K, relaxation calorimetry	0.02425
3.549 K, relaxation calorimetry	0.03325
3.937 K, relaxation calorimetry	0.04561
4 K, relaxation calorimetry	0.04786
4.364 K, relaxation calorimetry	0.06293
4.842 K, relaxation calorimetry	0.08785
5 K, relaxation calorimetry	0.09724
5.372 K, relaxation calorimetry	0.1225
5.959 K, relaxation calorimetry	0.1717
6 K, relaxation calorimetry	0.1763
6.613 K, relaxation calorimetry	0.2418
7 K, relaxation calorimetry	0.2944
7.34 K, relaxation calorimetry	0.3445
8 K, relaxation calorimetry	0.4614
8.147 K, relaxation calorimetry	0.493
9 K, relaxation calorimetry	0.6863
9.042 K, relaxation calorimetry	0.6996
10 K, relaxation calorimetry	0.9714
10.11 K, relaxation calorimetry	0.9995
11.21 K, relaxation calorimetry	1.394
12.45 K, relaxation calorimetry	1.929
13.81 K, relaxation calorimetry	2.607
15 K, relaxation calorimetry	3.273
15.35 K, relaxation calorimetry	3.484
17.04 K, relaxation calorimetry	4.582
18.93 K, relaxation calorimetry	5.892
20 K, relaxation calorimetry	6.679
21.01 K, relaxation calorimetry	7.451
23.34 K, relaxation calorimetry	9.268
25 K, relaxation calorimetry	10.62
25.88 K, relaxation calorimetry	11.3
28.73 K, relaxation calorimetry	13.63
30 K, relaxation calorimetry	14.7
31.9 K, relaxation calorimetry	16.25
35 K, relaxation calorimetry	18.79
35.42 K, relaxation calorimetry	19.19
39.33 K, relaxation calorimetry	22.36
40 K, relaxation calorimetry	22.84
43.67 K, relaxation calorimetry	25.77
45 K, relaxation calorimetry	26.81
48.45 K, relaxation calorimetry	29.39
50 K, relaxation calorimetry	30.63
53.77 K, relaxation calorimetry	33.35
55 K, relaxation calorimetry	34.26
59.7 K, relaxation calorimetry	37.69
60 K, relaxation calorimetry	37.94
65 K, relaxation calorimetry	41.5
66.26 K, relaxation calorimetry	42.34
70 K, relaxation calorimetry	44.95
73.58 K, relaxation calorimetry	47.19
75 K, relaxation calorimetry	48.3
80 K, relaxation calorimetry	51.54
81.69 K, relaxation calorimetry	52.8
85 K, relaxation calorimetry	54.68
90 K, relaxation calorimetry	57.74
90.67 K, relaxation calorimetry	58.3
95 K, relaxation calorimetry	60.72
100 K, relaxation calorimetry	63.64
100.62 K, relaxation calorimetry	63.74
110 K, relaxation calorimetry	69.28
110.75 K, relaxation calorimetry	69.63
120 K, relaxation calorimetry	74.73
120.81 K, relaxation calorimetry	75.51
130 K, relaxation calorimetry	80.03
130.85 K, relaxation calorimetry	80.63
140 K, relaxation calorimetry	85.23
140.98 K, relaxation calorimetry	85.76
150 K, relaxation calorimetry	90.34
151.1 K, relaxation calorimetry	90.49
160 K, relaxation calorimetry	95.4
161.19 K, relaxation calorimetry	95.3
170 K, relaxation calorimetry	100.41
171.29 K, relaxation calorimetry	100.67
180 K, relaxation calorimetry	105.4
181.37 K, relaxation calorimetry	106.96
188.15 K, Small sample (50 mg) DSC	104.81
189.15 K, Small sample (50 mg) DSC	105.65
190 K, relaxation calorimetry	110.37
190.15 K, Small sample (50 mg) DSC	106.41
191.15 K, Small sample (50 mg) DSC	107.06
191.45 K, relaxation calorimetry	111.84
192.15 K, Small sample (50 mg) DSC	107.53
193.15 K, Small sample (50 mg) DSC	107.94
194.15 K, Small sample (50 mg) DSC	108.84
195.15 K, Small sample (50 mg) DSC	109.73
196.15 K, Small sample (50 mg) DSC	110.56
197.15 K, Small sample (50 mg) DSC	111.25
198.15 K, Small sample (50 mg) DSC	111.77
199.15 K, Small sample (50 mg) DSC	112.42
200 K, relaxation calorimetry	115.34
200.15 K, Small sample (50 mg) DSC	113.07
201.15 K, Small sample (50 mg) DSC	113.73
201.6 K, relaxation calorimetry	116.2
202.15 K, Small sample (50 mg) DSC	114.29
203.15 K, Small sample (50 mg) DSC	114.78
204.15 K, Small sample (50 mg) DSC	115.4
205.15 K, Small sample (50 mg) DSC	115.95
206.15 K, Small sample (50 mg) DSC	116.45
207.15 K, Small sample (50 mg) DSC	116.98
208.15 K, Small sample (50 mg) DSC	117.43
209.15 K, Small sample (50 mg) DSC	117.85
210 K, relaxation calorimetry	120.31
210.15 K, Small sample (50 mg) DSC	118.46
211.15 K, Small sample (50 mg) DSC	119.05
211.7 K, relaxation calorimetry	120.82
212.15 K, Small sample (50 mg) DSC	119.45
213.15 K, Small sample (50 mg) DSC	120.03
214.15 K, Small sample (50 mg) DSC	120.6
215.15 K, Small sample (50 mg) DSC	120.96
216.15 K, Small sample (50 mg) DSC	121.61
217.15 K, Small sample (50 mg) DSC	122.09
218.15 K, Small sample (50 mg) DSC	122.56
219.15 K, Small sample (50 mg) DSC	123.25
220 K, relaxation calorimetry	125.28
220.15 K, Small sample (50 mg) DSC	123.79
221.15 K, Small sample (50 mg) DSC	124.32
221.79 K, relaxation calorimetry	126.14
222.15 K, Small sample (50 mg) DSC	124.76
223.15 K, Small sample (50 mg) DSC	125.31
224.15 K, Small sample (50 mg) DSC	125.9
225.15 K, Small sample (50 mg) DSC	126.32
226.15 K, Small sample (50 mg) DSC	126.8
227.15 K, Small sample (50 mg) DSC	127.31
228.15 K, Small sample (50 mg) DSC	127.86
229.15 K, Small sample (50 mg) DSC	128.26
230 K, relaxation calorimetry	130.27
230.15 K, Small sample (50 mg) DSC	128.74
231.15 K, Small sample (50 mg) DSC	129.25
231.89 K, relaxation calorimetry	131.18
232.15 K, Small sample (50 mg) DSC	129.79
233.15 K, Small sample (50 mg) DSC	130.29
234.15 K, Small sample (50 mg) DSC	130.84
235.15 K, Small sample (50 mg) DSC	131.47
236.15 K, Small sample (50 mg) DSC	132.03
237.15 K, Small sample (50 mg) DSC	132.65
238.15 K, Small sample (50 mg) DSC	133.18
239.15 K, Small sample (50 mg) DSC	133.62
240 K, relaxation calorimetry	135.27
240.15 K, Small sample (50 mg) DSC	134.1
241.15 K, Small sample (50 mg) DSC	134.58
241.92 K, relaxation calorimetry	136.06
242.15 K, Small sample (50 mg) DSC	135
243.15 K, Small sample (50 mg) DSC	135.48
244.15 K, Small sample (50 mg) DSC	135.91
245.15 K, Small sample (50 mg) DSC	136.33
246.15 K, Small sample (50 mg) DSC	136.8
247.15 K, Small sample (50 mg) DSC	137.31
248.15 K, Small sample (50 mg) DSC	137.82
249.15 K, Small sample (50 mg) DSC	138.21
250 K, relaxation calorimetry	140.29
250.15 K, Small sample (50 mg) DSC	138.96
251.15 K, Small sample (50 mg) DSC	139.41
251.99 K, relaxation calorimetry	141.26
252.15 K, Small sample (50 mg) DSC	139.85
253.15 K, Small sample (50 mg) DSC	140.35
254.15 K, Small sample (50 mg) DSC	140.97
255.15 K, Small sample (50 mg) DSC	141.49
256.15 K, Small sample (50 mg) DSC	142.02
257.15 K, Small sample (50 mg) DSC	142.62
258.15 K, Small sample (50 mg) DSC	143.2
259.15 K, Small sample (50 mg) DSC	143.78
260 K, relaxation calorimetry	145.33
260.15 K, Small sample (50 mg) DSC	144.21
261.15 K, Small sample (50 mg) DSC	144.74
262.11 K, relaxation calorimetry	146.2
262.15 K, Small sample (50 mg) DSC	145.34
263.15 K, Small sample (50 mg) DSC	145.66
